Experimental data from patent publication US20210161857A1, “COMPOSITION AND METHOD FOR SUPPRESSING INCREASE IN BLOOD GLUCOSE LEVEL” (SUNTORY HOLDINGS LIMITED, priority 2018, published 2021).

Key:
[1] = Glucose tolerance test after single intake of test substance; type: in vivo, Mice (C57BL/6J); conditions: single oral intake 30 or 60 mg/kg, 30 min before oral glucose 1 g/kg; vs control group, at any time
Text: Evaluation of Action of Isoxanthohumol to Suppress an Increase in Blood Glucose Level by Single Intake
The effect of single intake of isoxanthohumol on the increase in blood glucose level after glucose intake was examined by the following procedure.
Xanthohumol and isoxanthohumol were the standard samples (purity of 95% or higher) obtained in Preparation Example 1. The “Dosage” in the table, indicates the dosage (mg) of the test substance per kg body weight. A dosing solution containing a mixture of the test substance and a solvent was used to administer the test substance. The solvent was a 0.5 wt % sodium carboxymethylcellulose (CMC) aqueous solution. The volume of the dosing solution was 10 mL/kg A 50 wt % glucose aqueous solution was used for glucose intake.
(§1) Mice (C57BL/6J, male, 7 weeks of age, CLEA Japan, Inc.) were purchased, and they were quarantined and acclimatized for one week. […] The selected animals were divided into groups (n=9 in each group) in the group structure shown in Table, 1 by the stratified continuous randomization method based on body weight at the end of the acclimatization period.
After grouping, each group was oral administered with the test substance as described in Table 1. […] Soon after blood drawing, the blood glucose level was measured using Glutest Neo Sensor (Sanwa Kagaku Kenkyusho Co., Ltd.). […]

[2] = high temperature of 100° C.; cited from earlier work
[3] = Glucose tolerance test after continuous intake (three weeks) in high-fat diet mouse model; type: in vivo, Mice (C57BL/6J); conditions: high fat diet mice, oral glucose 1 g/kg, vs high fat diet group
Text: Evaluation of Action of Isoxanthohumol to Suppress an Increase in Blood Glucose Level by Continuous Intake
The effect of continuous intake of isoxanthohumol on the increase in blood glucose level after glucose intake was studied by the following procedure using a high-fat diet mouse model.
In the table, “Regular diet” is control diet “D12450J” (Research Diets), and “60 kcal % High-fat diet” is very high-fat diet “D12492” (Research Diets); Xanthohumol and isoxanthohumol were the standard samples (purity of 95% or higher) obtained in Preparation Example 1. The “Dosage” in the table indicates the dosage (mg) of the test substance per day per kg body weight. As in Reference Example 1, a dosing solution containing a mixture of the test substance and a solvent (a 0.5 wt % CMC aqueous solution) was used to administer the test substance. The volume of the dosing solution was 10 ml/kg. The amount of the test substance and the volume of the solution were calculated based on the latest body weight on the administration day of the test substance. A 50 wt % glucose aqueous solution was used for glucose intake.
as §1, with “japan,” for “Japan,”, “(n=8” for “(n=9”, “Table 2” for “Table, 1”, “period. They were fed with free access to specific basic feed and water. The test substance was orally administered once a day for three weeks.” for “period.”
After fasting for six hours on the last administration day of the test substance, each group was subjected to oral glucose intake to an amount of 1 g per 1 kg body weight, and blood was drawn from the tail vein over time. Soon after blood drawing, the blood glucose level was measured using Glutest Neo Sensor (Sanwa Kagaku Kenkyusho Co., Ltd.).
Statistical processing was performed using Microsoft Office Excel 2003. A significant difference, was tested between the regular diet group and the high fat diet group by Student's t-test (significant level: 1% (p<0.01)). A significant difference was tested between the high fat diet group and each group excluding the regular diet group by Dunnett's multiple comparison test (significant level: 5% (p<0.05)).

[4] = 10 mg/L mixed in drinking water, long-term breeding, high-fat diet mouse model; cited from earlier work
[5] = high-fat diet mouse model, cited from earlier work
[6] = test system: 3T3-L1 adipose cells; conditions: cited from earlier work
[7] = 30 mg/kg/day orally once a day for three weeks
[8] = 60 mg/kg/day orally once a day for three weeks

Structure (SMILES)	action to suppress an increase in blood glucose level [1]	thermal stability [2]	action to suppress an increase in blood glucose level [3, 7]	action to suppress an increase in blood glucose level [3, 8]	blood glucose level [4]	fasting blood glucose level ([5]; continuous administration 60 mg/kg/day)	fasting blood insulin level ([5]; continuous administration 30 or 60 mg/kg/day)	secretion of adiponectin [6]
COc1cc(O)c(CC=C(C)C)c2c1C(=O)CC(c1ccc(O)cc1)O2 (centres unmarked) [isoxanthohumol]	did not show a significant action to suppress an increase in blood glucose level	stable	tendency for a suppressed increase in blood glucose level	significant action to suppress an increase in blood glucose level	–	–	–	–
COc1cc(O)c(CC=C(C)C)c(O)c1C(=O)/C=C/c1ccc(O)cc1 [xanthohumol]	did not show a significant action to suppress an increase in blood glucose level	–	No significant action to suppress an increase in blood glucose level	No significant action to suppress an increase in blood glucose level	decrease in blood glucose level	decreases the fasting blood glucose level	decreases the fasting blood insulin level	promote secretion of adiponectin
